{"source": "paper PMC8509398", "about": "“Proteolytic Cleavage of Bioactive Peptides and Protease-Activated Receptors in Acute and Post-Colitis” (International Journal of Molecular Sciences, 2021)", "molecules": {"B1": {"name": "trypsin-2 (Homo sapiens) (protein)", "chain": "IVGGYICEENSVPYQVSLNSGYHFCGGSLISEQWVVSAGHCYKSRIQVRLGEHNIEVLEGNEQFINAAKIIRHPKYNSRTLDNDILLIKLSSPAVINSRVSAISLPTAPPAAGTESLISGWGNTLSSGADYPDELQCLDAPVLSQAECEASYPGKITNNMFCVGFLEGGKDSCQGDSGGPVVSNGELQGIVSWGYGCAQKNRPGVYTKVYNYVDWIKDTIAANS", "notes": "made in house"}}, "key": {"[1]": {"target": "pancreatic elastase I (Sus scrofa, UniProt P00772)", "sequence (P00772 27-266)": "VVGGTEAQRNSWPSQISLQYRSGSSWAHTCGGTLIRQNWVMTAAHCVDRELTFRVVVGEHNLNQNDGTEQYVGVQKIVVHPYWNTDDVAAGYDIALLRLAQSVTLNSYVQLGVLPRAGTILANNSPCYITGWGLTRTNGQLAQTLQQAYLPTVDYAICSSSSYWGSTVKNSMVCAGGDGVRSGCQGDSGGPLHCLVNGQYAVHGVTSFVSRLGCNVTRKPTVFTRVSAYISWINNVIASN", "test": "Cleavage of peptides by purified pancreatic elastase, MALDI-TOF/TOF", "conditions": "25 nM protease, 10 µM peptide, 37 °C, time points 2, 5, 10, 30 min", "excerpt": "Trypsin-like proteases included in the experiments are trypsin-1, -2 and -3, tryptase (Enzo LifeSciences), thrombin (Sigma-Aldrich) and cathepsin G (Sigma-Aldrich). Trypsin-1, -2 and -3 were produced as described by Koistinen et al. and Wu et al.. Two elastase-like enzymes, neutrophil elastase (Enzo LifeSciences, Farmingdale, NY, USA) and pancreatic elastase I (Sigma-Aldrich) were included as well. All enzymes were from human origin except for pancreatic elastase from porcine pancreas.\nReaction mixtures with purified enzymes were compiled in an identical way. […] Substance P was added as the standard peptide except for the reaction mixtures with substance P or bradykinin as the peptide of interest, where angiotensin II (Bachem) was added.\nThe TFA mixtures were thawed on ice and desalted using C18 zip-tips (Merck Millipore®, Burlington, MA, USA) with a capacity of 5 µg protein. Retained peptide fragments were eluted directly on the MALDI target plate. Next, 0.5 µL of a 2.5 mg/mL α-cyano-4-hydroxycinnamic acid (Sigma-Aldrich) matrix solution (in 70% acetonitrile, 0.1% TFA) was spotted on top of the sample. A 6-Peptide mixture Kit (AB Sciex, Framingham, MA, USA) containing bradykinin (2–9), angiotensin I, glu1-fibrinopeptide, ACTH (1–17), ACTH (18–39) and ACTH (7–38) was diluted with matrix and spotted on the plate as well.\nMS and MS/MS data for peptide fragment identification were obtained with a MALDI-TOF/TOF instrument (4800 MALDI TOF/TOF™, Applied Biosystems, Waltham, MA, USA) and instrument parameters were set using 4000 Series Explorer™ software. MS spectra were recorded in positive reflector mode in a mass range from 500 to 4000 Da and laser intensity of 4500–4800 Hz. The spectra were calibrated using the calibration mixture mentioned above to a mass tolerance of 0.1 Da. MS/MS spectra were recorded with high-energy collision-induced dissociation and the laser intensity was increased by 10%.\nIdentified fragments were confirmed using the MS/MS spectra and mMass 5.5.0 by Martin Strohalm. The relative intensities of the fragments were calculated as the ratio of the intensity of the peak of interest to the intensity of the peak of the standard peptide."}, "[2]": {"test_system": "T-cell transfer colitis mouse model", "conditions": "treated mice; cited from earlier work"}, "[3]": {"target": "T1, trypsin-3 (Homo sapiens, UniProt P35030)", "T1 sequence (P35030 1-304)": "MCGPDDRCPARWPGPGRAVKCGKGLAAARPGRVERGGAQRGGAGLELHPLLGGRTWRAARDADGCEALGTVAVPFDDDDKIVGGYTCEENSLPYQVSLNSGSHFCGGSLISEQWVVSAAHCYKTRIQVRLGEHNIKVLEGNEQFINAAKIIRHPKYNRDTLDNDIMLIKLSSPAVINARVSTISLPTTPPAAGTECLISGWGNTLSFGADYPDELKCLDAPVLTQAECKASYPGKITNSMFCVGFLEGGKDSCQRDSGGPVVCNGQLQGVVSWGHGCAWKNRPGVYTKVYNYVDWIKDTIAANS", "test": "Michaelis-Menten constant of fluorogenic substrates with trypsin-3", "assay_type": "biochemical", "parameters": "made in house", "conditions": "trypsin-3 0.015 nM, range of substrate concentrations, 37 °C, fluorescence measured kinetically 20 min, Michaelis-Menten fit, experiment repeated twice", "method": "(§1) Preheated substrate was added to colonic lysate to start the reaction. Fluorescence was measured for 20 min at 37 °C on a Tecan Infinite F200 pro microtiter plate reader. A calibration curve with AMC (Sigma-Aldrich, Saint Louis, MO, USA) was used to determine activities in units per liter, where a unit is defined as the amount of enzyme that catalyzes the conversion of one micromole of the substrate per minute in the specific experimental conditions described. Activities were normalized to protein concentration determined with Bradford to obtain activities in units per gram protein. Km for trypsin-1, trypsin-2, trypsin-3 and thrombin with Boc-QAR-AMC and Tos-GPR-AMC were also determined (Figure S5).\n(§2) Figure S 5: Michaelis-Menten constant (Km) for (a) trypsin-1, (b) trypsin-2, (c) trypsin-3 and (d) thrombin with Boc-QAR-AMC and Tos -GPR-AMC. The Km was determined with Boc -QAR-AMC and Tos -GPR-AMC by adding trypsin-1 (0.015 nM), trypsin -2 (0.015 nM), trypsin -3 (0.015 nM) or thrombin (0.19 nM) to a range of substrate concentrations at 37° C. The fluorescence was measured kinetically for 20 min at 37° C on a Tecan F200 multi-plate reader. The results in RFU/min were recalculated by dividing them by the slope of a calibration curve with AMC (0.78 – 10 µM) to obtain results in µmol/L/min. […]"}, "[4]": {"target": "thrombin (Homo sapiens, UniProt P00734)", "test": "Michaelis-Menten constant of fluorogenic substrates with thrombin", "assay_type": "biochemical", "parameters": "thrombin (Sigma-Aldrich); purchased Sigma-Aldrich", "conditions": "thrombin 0.19 nM, range of substrate concentrations, 37 °C, fluorescence measured kinetically 20 min, Michaelis-Menten fit, experiment repeated twice", "method": "as §1, §2"}, "[5]": {"substrate": "Cc1cc(=O)oc2cc(NC(=O)[C@H](CCCNC(=N)N)NC(=O)[C@H](C)NC(=O)[C@H](CCC(N)=O)NC(=O)OC(C)(C)C)ccc12", "test": "Michaelis-Menten constant of fluorogenic substrates with trypsin-2", "assay_type": "biochemical, human", "conditions": "other: trypsin-2 0.015 nM, range of substrate concentrations, 37 °C, fluorescence measured kinetically 20 min, Michaelis-Menten fit, experiment repeated twice", "method": "as §1, §2"}}, "note": "Residues, ends and D or L forms follow the SMILES beside them. *: point of attachment. AMC = Cc1cc(=O)oc2cc(N*)ccc12; Boc = CC(C)(C)OC(=O)*", "data": [{"molecule": "CSCC[C@H](NC(=O)[C@H](Cc1ccccc1)NC(=O)CNC(=O)CNC(=O)[C@@H](N)Cc1ccc(O)cc1)C(=O)O", "note": "[M-enkephalin, Met-enkephalin]", "values": [{"measurement": "Incubation time at which the first cleavage or decrease of the full-length peptide was observed, pancreatic elastase", "setting": "[1]", "value": 30, "unit": "min"}]}, {"molecule": "CC(=O)Nc1ccc(OP(=O)(Oc2ccc(NC(C)=O)cc2)C(Cc2ccc(N=C(N)N)cc2)NC(=O)OCc2ccccc2)cc1.Cl", "note": "(stereo not shown) [UAMC-00050]", "values": [{"measurement": "Effect on intestinal inflammation and permeability", "setting": "[2]", "value": "ameliorated intestinal inflammation and permeability"}, {"measurement": "Effect on mRNA expression of PAR4", "setting": "[2]", "value": "decreased the mRNA expression of PAR4"}]}, {"molecule": "Cc1cc(=O)oc2cc(NC(=O)[C@H](CCCNC(=N)N)NC(=O)[C@H](C)NC(=O)[C@H](CCC(N)=O)NC(=O)OC(C)(C)C)ccc12", "note": "[Boc-QAR-AMC] (Boc-Gln-Ala-Arg-{AMC})", "values": [{"measurement": "Km", "setting": "[3]", "value": "4.6 ± 0.3", "unit": "µM"}, {"measurement": "Km", "setting": "[4]", "value": "2510 ± 285", "unit": "µM"}]}, {"molecule": "CC(C)C[C@H](NC(=O)[C@H](Cc1ccccc1)NC(=O)CNC(=O)CNC(=O)[C@@H](N)Cc1ccc(O)cc1)C(=O)O", "note": "[L-enkephalin, Leu-enkephalin]", "values": [{"measurement": "Incubation time at which the first cleavage or decrease of the full-length peptide was observed, pancreatic elastase", "setting": "[1]", "value": 30, "unit": "min"}]}, {"molecule": "B1", "values": [{"measurement": "Km", "setting": "[5]", "value": "11.8 ± 0.1", "unit": "µM"}]}]}
